From patent US9713613B2, “Methods and compositions for the treatment of cancer and related hyperproliferative disorders” (priority 2007, dated 2017)

Key:
ob/ob mice = experiment: GC-MS analyses of fatty acids in the livers of ob/ob mice; format: in vivo, mouse
Protocol: Liver samples (100 mg) obtained from fatostatin A-treated ob/ob mice and non-treated control mice and stored at −80° C. until analyzed for fatty acid contents. The fatty acids were extracted according to Folch's protocol and quantitatively analyzed using gas chromatography-mass spectrometry (GC-SM). As shown in the above table, there is about 50% reduction of C14:0 and C16:0, the products of the de novo fatty acid synthesis, and about 70% reduction of monounsaturated fatty acids C16:1, C18:1 and C20:1 and their elongation-desaturation products (C18:2)N-6, (C18:3)N-6, (C20:2)N-6, (C20-3)N-6 and (C20:5)N-3. Myristate (C14:0) and palmitate (C16:0), the products of FAS, were reduced by about 50% (P<0.05). There was no change in C18 levels, which is derived not only from de novo fatty acid synthesis by FAS, but also from food and chain elongation system. […] Also, the levels of polyunsaturated long-chain fatty acids (18:2)N-6, (18:3)N-6, (20:2)N-6, (20:3)N-6 and (20:5)N-3 were reduced 30-60%. These reductions are the result of down regulation of key enzymes in the lipogenic pathways (FAS, ACC and SCD, ACL) at transcription and translation.
Four- to 5-week old homozygous male obese (ob/ob) mice (C57BL/6J, The Jackson Laboratory, Bar Harbor, Me.) were housed under controlled conditions (12-hr light/dark cycle; 25° C.). The animals were housed 5 per cage and had ad libitum access to standard laboratory chow (Purina Mills, Richmond Ind.) and water for one week after their arrival. On first day of the experiment and every day thereafter the weight of the mice and the amount of the food consumed were measured. The weight of mice and food remaining were measured daily between 3-5 p.m. before the ip injection of fatostatin A (30 mg/kg; 150 μL). The administration of Fatostatin A or 10% DMSO in PBS to control groups (n=5) continued daily for four weeks till the end of the study.

MOLT-4 cells = experiment: MOLT-4 cell growth, MTT assay; format: cell-based, human; conditions: 48 hours
Protocol: 10,000 MOLT-4 cells (FIGS. 35A-35C) and 20,000 RPM18226 cells (FIGS. 35D-35F) were seeded onto 96 well plate in RPMI 1640 medium containing 5% FBS or fat-free charcoal treated serum (FF-FBS) for 24 hours at 37 C. MOLT-4 and RPM18226 cells were treated for additional 48 hours with different concentrations of compound 19 (None control without DMSO, Vehicle with DMSO, 1, 2, 5, 10 and 20 μM in DMSO; RPM18226 cells also were treated with 3 μM in DMSO). At the end of 48 hours cells were subjected to MTT assay to determine viability. Values are depicted as means±SD; *P<0.05.
20,000 MOLT-4 cells (FIGS. 36A-36C) and 20,000 RPM18226 cells (FIGS. 36D-36F) cells were seeded onto 96 well plates in RPMI 1640 Medium containing 5% Fetal bovine serum (FBS) or 5% fat free charcoal treated serum (FF-FBS) for 24 hours at 37 C. Cells then were treated for additional 48 hours with different concentrations of compound 17 (None control without DMSO, Vehicle with DMSO, 1, 2, 3, 5, 10 and 20 μM in DMSO). At the end of the 48 hours treatment cells were subjected to MTT assay to determine viability. Values are depicted as means±SD (n=3); **P<0.001; ***P<0.0001.
MOLT-4 cells were grown at two different conditions under 5% fetal bovine serum (FBS) and under 5% FBS fat free serum (charcoal treated serum). 10,000 Cells were seeded a 96 well plate for 24 hours before starting the treatment with different concentrations of compound 19. Compound 19 dissolved in DMSO was added to cells for 48 hours before determining cell growth using MTT assay. […] Compound 19 inhibited cell growth about 75-80% at 10 and 20 μM under both growth conditions.
MOLT-4 cells were grown at two different conditions under 5% fetal bovine serum (FBS) and under 5% FBS fat free serum (charcoal treated serum). 20,000 cells were seeded into a 96 well plate for 24 hours before starting the treatment with different concentrations of compound 17. Compound 17 dissolved in DMSO was added to cells for 48 hours before determining cell growth using MTT assay. […] Compound 17 inhibited cell growth about 85-100% at 5, 10 and 20 μM under both growth conditions. Under both 5% FBS and 5% FBS fat free sera there was a strong trend of inhibition starting at 1 μM (FIGS. 36B-36C).

CCCc1cc(-c2nc(-c3ccc(C)cc3)cs2)ccn1 [Compound 1, 2-propyl-4-(4-p-tolylthiazol-2-yl)pyridine]
Fatty Acid (14:0) Ratio treated:control (ob/ob mice; ob/ob mice liver): 0.5148
Fatty Acid (16:0) Ratio treated:control (ob/ob mice; ob/ob mice liver): 0.4367
Fatty Acid (16:1) Ratio treated:control (ob/ob mice; ob/ob mice liver): 0.3285
Fatty Acid (18:0) Ratio treated:control (ob/ob mice; ob/ob mice liver): 1.066
Fatty Acid (18:1) Ratio treated:control (ob/ob mice; ob/ob mice liver): 0.2922
Fatty Acid (18:2)N-6 Ratio treated:control (ob/ob mice; ob/ob mice liver): 0.638
Fatty Acid (18:3)N-3 Ratio treated:control (ob/ob mice; ob/ob mice liver): 1.218
Fatty Acid (18:3)N-6 Ratio treated:control (ob/ob mice; ob/ob mice liver): 0.4232
Fatty Acid (20:0) Ratio treated:control (ob/ob mice; ob/ob mice liver): 0.8517
Fatty Acid (20:1) Ratio treated:control (ob/ob mice; ob/ob mice liver): 0.3245
Fatty Acid (20:2)N-6 Ratio treated:control (ob/ob mice; ob/ob mice liver): 0.4668
Fatty Acid (20:3)N-6 Ratio treated:control (ob/ob mice; ob/ob mice liver): 0.6297
Fatty Acid (20:4)N-6 Ratio treated:control (ob/ob mice; ob/ob mice liver): 1.125
Fatty Acid (20:5)N-3 Ratio treated:control (ob/ob mice; ob/ob mice liver): 0.6994
Fatty Acid (22:0) Ratio treated:control (ob/ob mice; ob/ob mice liver): 1.266
Fatty Acid (22:1) Ratio treated:control (ob/ob mice; ob/ob mice liver): 0.871
Fatty Acid (22:4)N-6 Ratio treated:control (ob/ob mice; ob/ob mice liver): 0.959
Fatty Acid (22:5)N-3 Ratio treated:control (ob/ob mice; ob/ob mice liver): 0.7357
Fatty Acid (22:5)N-6 Ratio treated:control (ob/ob mice; ob/ob mice liver): 1.18
Fatty Acid (22:6)N-3 Ratio treated:control (ob/ob mice; ob/ob mice liver): 1.058
Fatty Acid (24:0) Ratio treated:control (ob/ob mice; ob/ob mice liver): 1.308
Fatty Acid (24:1) Ratio treated:control (ob/ob mice; ob/ob mice liver): 1.699
Fatty Acid (16:0) in liver (ob/ob mice; treated ob/ob mice): 37100 ± 3660 nmol/g liver
Fatty Acid (16:1) in liver (ob/ob mice; treated ob/ob mice): 11400 ± 228 nmol/g liver
Fatty Acid (18:0) in liver (ob/ob mice; treated ob/ob mice): 15100 ± 916 nmol/g liver
Fatty Acid (18:1) in liver (ob/ob mice; treated ob/ob mice): 44500 ± 8840 nmol/g liver
Fatty Acid (18:2)N-6 in liver (ob/ob mice; treated ob/ob mice): 29700 ± 2460 nmol/g liver
Fatty Acid (20:0) in liver (ob/ob mice; treated ob/ob mice): 164 ± 22.9 nmol/g liver
Fatty Acid (22:0) in liver (ob/ob mice; treated ob/ob mice): 116 ± 26 nmol/g liver
Fatty Acid (24:0) in liver (ob/ob mice; treated ob/ob mice): 158 ± 7.02 nmol/g liver
increase in C24:0 in livers (ob/ob mice; vs untreated control mice): 30%
lowering of C20:0 in livers (ob/ob mice; vs untreated control mice): about 15%
reduction of (18:2)N-6, (18:3)N-6, (20:2)N-6, (20:3)N-6 and (20:5)N-3 in livers (ob/ob mice; vs untreated control mice): 30-60%
reduction of (C18:2)N-6, (C18:3)N-6, (C20:2)N-6, and (C20-3)N-6 in livers (ob/ob mice; vs untreated control mice): about 50%
reduction of C14:0 and C16:0 in livers (ob/ob mice; vs untreated control mice): about 50%
reduction of monounsaturated fatty acids C16:1, C18:1 and C20:1 in livers (ob/ob mice; vs untreated control mice): about 70%

CCCc1cc(-c2nc(-c3ccc(NS(C)(=O)=O)cc3)cs2)ccn1 [Compound 19, N-(4-(2-(2-propylpyridin-4-yl)thiazol-4-yl)phenyl)methanesulfonamide]
growth inhibition (MOLT-4 cells; 2 and 5 μM, FBS fat free serum): 30-50%
inhibition of cell growth (MOLT-4 cells; 10 and 20 μM, 5% FBS and 5% FBS fat free): 75-80%
